Assay results reported in patent US20060275510A1, “Formulations for menopausal syndromes” (Hong Kong Jockey Club Institute of Chinese Medicine Limited, priority 2005, published 2006).

Key:
Type in all cases: in vivo
KM mice [1] = assay: Step-down test on normal mice (scopolamine); details: n = 10 mice, oral 14 days: Composition I 14 g (crude herb)/kg/d, Huperzine A 1.5 ug/kg/d
From the text: A step-down recorder, comprising a platform and a copper floor, is provided. The mice were placed on the copper floor. When the cooper floor is electrified, the normal reaction of the mice is to jump up to the platform to avoid the electric shock. After a period of time, the mice may forget about the shock and jump back to the floor. This jumping back to the floor is an “error reaction”. The mice that jump back to the floor received electric shock again and would jump back to the platform again. The duration between the first jump up (to the platform) and back (to the floor) is called the “latency period”. The number of jumping backs (error reactions) in a certain period of time could serve as an indicator of the memory of the mice.
Based on the Principle, agents that are able to reduce the error reactions of mice in a certain period of time and […] the latent period are deemed effective in memory improvement. Xu S Y. (1991), Chen Q. (1996), Zhang J T. (1998),Yang J, Wang J, et al. (2000).
Code: YLS-2 T, purchased from Facility station of Shandong Academy of Medical Science Method:
Thirty normal female mice were randomized into 3 groups of 10: negative control, positive control (Huperzine A) and the test group. Mice in the three groups received respective drugs and doses orally as indicated above, once per day for consecutive 14 days. An hour after the last administration, all the mice were administrated with 2 mg/kg scopolamine intraperitoneally. 30 minutes later, the mice were placed in the step down recorder for 5 minutes for pre-adaptation. After the pre-adaptation, the copper floor was electrified for 5 minutes. The number of electric shocks each mouse received in the 5 minutes was recorded. After 24 hours, the test was conducted again.
The number of shocked mice, the latency period of each mouse, and the average number of error reactions in 3 minutes were recorded.

KM mice [2] = assay: Step through test on normal mice (ethanol-induced memory impairment); details: oral 14 days: Composition I 14 g (crude herb)/kg/day, Huperzine A 1.5 ug/kg/day
From the text: A Step Through Test Box for Mouse with a light room and a dark room inside is provided. The mice are placed in the light room with their back facing the door. When the mice come out from the light room and enter the dark room, they get shocked, such behavior is called an error reaction. The first duration before an error reaction occurs after a mouse is placed in the box is called the latency period. Mice bearing better memories have longer latency period and commit less error reactions in a certain period of time.
Agents that are able to increase the latency period and reduce error reactions of mice in the Step Through Test Box are deemed effective in improving the memory of animals. Reference: Xu S Y (1991), Chen Q (1996), Zhang J T. (1998), Yang J, Want J. et al (2000), and Zhu X D and Tang X C.
Animals: KM mice, female, 18-20 g, purchased from Shanghai Experimental Animal Center of the Chinese Academy of Sciences.
Thirty normal female mice weighed between 18-20 g were randomized into 3 groups of 10: negative control, positive control (Huperzine A) and the test group. The mice were administered orally with the above-indicated doses and drugs, once a day for 14 days. An hour after the last administration (day 14), all the mice were orally given 45% ethanol (0.1 ml/10 g). 30 minutes later, the mice were placed in the light room of the test box with their back facing the door. When the mice entered the dark room and got shocked, the latency period was recorded (the 1st latency period). The test was conducted again 24 hours later, wherein the number of mice entering the dark room (error reaction) and the latency period (the 2nd latency period) were recorded.

[3] = system: pentobarbital sodium-injected mice; assay: Sleeping test (pentobarbital sodium-induced sleep); details: female KM mice; oral; Composition I 56 g (crude herb)/kg/d 14 days, Diazepam 0.5 mg/kg once on day 14; pentobarbital sodium 35 mg/kg i.p. 1 h after last dose
Procedure: According to Xu S Y. (1991 ), Chen Q. (1996 ), Zhang J T. (1998 ), Zhu X D. and Tang X C. (1998 ), an agent is deemed to have sedative and hypnotic effects if it can prolong the duration of the sleep, as indicated by the disappearance of right reflex, of pentobarbital sodium-injected mice
Drug, dose, and the administration formulation: • For negative control group: 0.9% saline. • For positive control group: Diazepam, purchased from BangNing Pharmaceutical Co. Ltd. The dose was 0.5 mg/kg weight/d. […] The dose was 56 g (crude herb)/kg weight/d. […] Method:
Thirty normal female mice weighed between 18-20 g were randomized into 3 groups of 10: the negative control group, the positive control group, and the test group. For the negative control and testing group, the drugs were administered to the mice orally with the doses and formulations indicated, once per day for consecutive 14 days. For the positive control group, the drug was given on the day fourteen orally. One hour after the last administrations, all mice were injected with 35 mg/kg of pentobarbital sodium intraperitoneally. The duration of the disappearance of righting reflex was observed and recorded. According to Zhang J T. (1998 ), the duration of the disappearance of righting reflex equals to the sleeping time.

KM mice [4] = assay: Open field test (spontaneous activity); details: female KM mice; oral; Composition I 14 g (crude herb)/kg/d 14 days, Diazepam 1.0 mg/kg once on day 14
Method: KM mice, females, weighed between 18-20 g, purchased from Shanghai Experimental Animal Center, the Chinese Academy of Sciences.
• Multi-functional Auto-Motion Recorder for Mouse/Rat: manufactured by Facility Station of Shandong Academy of Medical Science. Product code: YLS-1B.
Drug, dose, and the administration formulation: • For negative control group: 0.9% saline. • For positive control group: Diazepam as described above. The dose was 1.0 mg/kg weight/d. […] The dose was 14 g (crude herb)/kg weight/d. […] Method:
Thirty normal female mice weighed between 18-20 g were randomized into 3 groups of 10: negative control, positive control and the test group. For the negative control and testing group, the drugs were administered to the mice orally with the doses and formulations described above, once per day for consecutive 14 days. For the positive control group, the drug was given on the day fourteen orally. One hour after the last administration, the mice were individually placed into a box with infrared detection light to record their spontaneous activities in 3 minutes.

normal female mice = assay: Dark-light box test on normal mice; details: within 10 minutes, oral, Composition I 56 g (crude herb)/kg/d 14 days, Diazepam 1.0 mg/kg once on day 14, 1 h after last dose
Procedure: In the experiment, mice were placed in Shimada light and dark box. The times of mice shuttling between the boxes and the duration of mice staying in the dark/light box were recorded.
• Shimada light and dark box: size: 40 cm×40 cm×12 cm, having a light box (20 cm×20 cm×12 cm) at the center, and two dark boxes (10 cm×10 cm×12 cm) at two diagonal corners. Two L-shaped tracks are connected to two sides of each dark box. Manufacturer: Shanghai Institute of Pharmaceutical Industry. Animals:
Thirty normal female mice weighed between 18-20 g were randomized into 3 groups of 10: negative control, positive control (Diazepam) and the test group. The mice in the negative and test groups were administered orally with respective drugs and doses as indicated above, once a day for consecutive 14 days. The mice in the positive control group received only one dose orally as indicated above on day fourteen. 1 hour after the last administration on day fourteen, all the mice were placed in the Shimada light and dark box.

ovariectomized mice = assay: Dark-light box test on ovariectomized mice; details: within 10 minutes, oral, Composition I 14 g (crude herb)/kg/d 14 days, Diazepam 1.0 mg/kg once on day 14, 1 h after last dose
Procedure: The same experiment of Example 5 was conducted on ovariectomized mice. […] See Xu S Y. (1991), Chen Q. (1996), Zhang J T. (1998).
Apparatus: Same as Example 5.
Animals: Same as Example 5.
Negative control group: 0.9% saline,
Positive control group: Diazepam, 1.0 mg/kg weight
Thirty female mice were anaesthetized by intraperitoneal injection with 35 mg/kg Pentobarbital Sodium. Two cuts were made on the back of the rats, each cut being 1.5 cm from the spine. The two ovaries were taken from the two cuts, respectively. The cuts were then sealed. 1 week after the ovariectomization, the 30 mice were randomly divided into 3 groups, and the same administration procedures as Example 5 were followed, using drugs and doses specified above. 1 hour after the last administration on day fourteen, all the mice were placed in the Shimada light and dark box.

ovariectomized rats [5] = assay: Elevated plus-maze test on ovariectomized rats; details: oral, Composition I 14 g (crude herb)/kg/d 14 days, Diazepam 0.5 mg/kg once on day 14, 1 h after last dose
Method: SD rats, female, weighed 230-250 g, purchased from Shanghai Experimental Animal Center, the Chinese Academy of Sciences.
• For negative control group: 0.9% saline. • For positive control group: Diazepam as described above. The dose was 0.5 mg/kg weight. • For test group: Composition as prepared in Experiment 1. The dose was 14 g (crude herb)/kg weight/d. Method:
Thirty female rats were divided into the above-mentioned 3 groups randomly and were anaesthetized by intraperitoneal injection with 60 mg/kg Pentobarbital Sodium. Two cuts were made on the back of the rats, each cut being 1.5 cm from the spine. The two ovaries were taken from the two cuts, respectively. The cuts were then sealed. The drug administration began 1 week after the ovariectomization. […] The rats in the positive control group received Diazepam orally only once on day fourteen. 1 hour after the last administration, the rats were placed in a maze.

ovariectomized rats [6] = assay: Serum estrogen and progesterone levels (RIA), uterus weight and visceral index in ovariectomized rats; details: ovariectomized SD rats, 28 days once daily, n = 6
Procedure: Female hormone stimulates estrogen in overiectomized female mice/rats.
SD rats, female, weighted between 220-250 g before administration, purchased from Shanghai Sino-British Sippr/BK LAB Animal Ltd., randomly split into 5 groups.
• Negative control group: 0.9% saline • Positive control group: • 1. Estradiol Benzoate, purchased from Shanghai No. 9 Pharmaceutical Ltd. Dose: 0.01 mg/kg weight/day • 2. ZuoGuiWan, purchased from Shanghai Leiyunshang Fengbang Pharmaceutical Co., Ltd. • 3. GengNianAn, purchased from Zhongxin Pharmacy Tianjin Leren Tang Pharmaceutical Factory. […] Dose: 1.0 ml/100 g weight/day • Positive control group: • 1. Estradiol Benzoate, Dose: […] dissolved in peanut oil (0.01 mg/ml). • 2. ZuoGuiWan, Dose: 7 g/kg weight/day dissolved in 0.5% CMC—Na, • 3. GengNianAn, Dose: 6 g/kg weight/day dissolved in 0.5% CMC—Na, • 5.
Thirty ovariectomized female SD rats weighed between 220.0-250.0 g were randomized into 5 groups: the negative control group, the positive control group, comprising 1. Estradiol Benzoate group, 2. ZuoGuiWan group, 3. GengNianAn group, and the test group. The rats in the negative control, ZuoGuiWan, GengNianAn and the test groups received respective drug and dose as indicated intragastrically. The rats in Estradiol Benzoate were injected with estradiol at the above-indicated dose. All rats received administration once everyday for consecutive 28 days. During the 28 days, a daily pap smear was performed before drug administration. Twenty-four hours after the last administration, all of the rats were weighed, anesthetized, blood withdrawn and killed. The uterus was then removed and half of the uterus was weight in wet. The other half of the uterus was dried for 8 hours in an oven for the measurement of dried weight. The serum estrogen and progesterone levels were determined using radioimmunoassay (RIA) method.

ovariectomized hamsters [7] = assay: Ferric Reducing Ability of Plasma (FRAP) in ovariectomized hamsters; details: Positive control
From the text: The higher the anti-oxidation level, the more Fe^2+ ions are reduced from Fe^3+ ions. See Benzie I F and Szeto Y T (1999).
47 female hamsters, weighed about 100 g, bred at the Laboratory Animal Services Center (LASEC) of the Chinese University of Hong Kong, were randomly divided into 6 groups.
Apparatus: • UV-visible spectrophometer: manufacturer Shimadzu, product code: UV-1601
Method: 47 female hamsters weighed 100 g were divided into 6 groups, including three test groups 1, 2, and 3, the positive control group 4, the negative control group 5, and the sham operated group 6.
The hamsters in groups 1-5 were ovariectomized. A month afterwards, the hamsters in groups 1-6 were administered intragastrically with the drugs and doses indicated above, once every day for consecutive 4 weeks. After 4 weeks of administration, blood samples were obtained from the orbital venous sinus, and were subjected to centrifugation at 10,000 rpm for 10 minutes to collect serum. 10 μl of serum was diluted with 490 μl double distilled water. 300 μl freshly prepared FRAP reagent was then added to initiate the reaction. The samples were placed under 593 nm to observe the changes of absorbance during the first 10 minutes of the reduction of Fe^3+ to Fe^2+. The increase in absorbance is an indicator of the level of reduction. The Ferric Reducing Ability of Plasma (FRAP) values were determined as follows: […]

ovariectomized hamsters [8] = assay: Serum [non-HDL]/[HDL] ratio and kidney cholesterol in ovariectomized hamsters; details: Positive control, 17β Estradiol 21 day release 0.5 mg/pellet
Method: Animals: hamsters, female, weighed 100 g, bred at the Laboratory Animal Services Center (LASEC) of the Chinese University of Hong Kong, randomly divided into 6 groups.
Dose: 0.5 mg/pellet, catalogue no.: E121 • The sham operated group: hamsters received the operation but not ovariectomy. Method:
47 hamsters weighed 100 g were divided into 6 groups including the positive group, negative group, sham operated and 3 dosage groups (low, medium and high). All hamsters except those in the sham operated group received ovariectomy. A month after the ovariectomy operation, all hamsters were administered intragastrically with drugs and doses indicated above, once a day for consecutive 4 weeks. […] The non-HDL/HDL ratio in serum was analyzed according to See Ho K K W, Leung L K, Chan F L, Huang Y, Chen Z Y (2003).
The hamsters received administration intragastrically for another 4 weeks prior to killing by nitrogen narcosis. The cholesterol level in kidney was measured by gas chromatography.
300 mg of the kidney and 1 mg of the internal standard (IS), stigniastanol (Sigma, S-4297) was homogenized using Polytron homogenizer in 15 ml chloroform-methanol (2:1, v/v) and 3 ml 0.9% saline. […] The TMS-ether derivative was analyzed in a fused silica capillary column (SAC™-5, 30 m×0.25 mm, i.d.; Supelco, Inc., Bellefonte, Pa., USA) in a Shimadzu GC 14B GLC equipped with a flame-ionization detector (Shimadzu). […]

[9] = 5 minutes pre-adaptation (first test), scopolamine 2 mg/kg i.p.
[10] = 24 hours after scopolamine administration
[11] = The second test (24 h later), 45% ethanol
[12] = Composition I 7 g (crude herb)/kg/day i.g., ZuoGuiWan 7 g/kg/day, GengNianAn 6 g/kg/day, Estradiol Benzoate 0.01 mg/kg/day injected

SMILES: C/C=C1\[C@H]2C=C(C)C[C@]1(N)c1ccc(=O)[nH]c1C2 [Huperzine A]
- Number of shocks per mouse (KM mice [1]; [9]): 5.7 ± 2.7
- Total number of shocks (KM mice [1]; [9]): 51
- First step down latency period (KM mice [1]; [10]): 200.6 ± 137.2 s
- Number of error reactions in 3 minutes (KM mice [1]; [10]): 8
- Number of shocked mice (KM mice [1]; [10]): 5
- The 1st latency period (KM mice [2]; The first test, 45% ethanol 0.1 ml/10 g orally): 19.3 ± 16.16
- No. of error reactions (KM mice [2]; [11]): 1.4 ± 2.0
- The 2nd latency period (KM mice [2]; [11]): 196.2 ± 121.9

SMILES: CN1C(=O)CN=C(c2ccccc2)c2cc(Cl)ccc21 [Diazepam]
- Sleeping Time [3]: 2927.8 ± 1061.2 s
- Locomotion times during the 3 minutes, 1 hour after drug (KM mice [4]): 61.0 ± 11.6
- Locomotion times during the 3 minutes, 3 hour after drug (KM mice [4]): 46.2 ± 11.3
- Shuttle Time (normal female mice): 76.1 ± 8.90
- Time spent in dark box (normal female mice): 166.6 ± 45.05
- Shuttle Time (ovariectomized mice): 20.5 ± 10.7 (p = 0.874)
- Time spent in dark box (ovariectomized mice): 47.4 ± 31.9
- Time spent in open arm × 100% / Time spent in both arms (ovariectomized rats [5]): 6 ± 7%
- Times of entering open arm × 100% / Times of entering both arms (ovariectomized rats [5]): 12 ± 11%

SMILES: C[C@]12CC[C@@H]3c4ccc(OC(=O)c5ccccc5)cc4CC[C@H]3[C@@H]1CC[C@@H]2O [Estradiol Benzoate]
- Serum Estrogen (ovariectomized rats [6]; [12]): 33.00 ± 21.76 ng/mL
- Serum Progesterone (ovariectomized rats [6]; [12]): 25.85 ± 6.15 ng/mL
- Visceral Index (ovariectomized rats [6]; doses as for serum levels): 0.246 ± 0.030 g/100 g BW
- Wet weight of uterus (ovariectomized rats [6]; doses as for serum levels): 0.597 ± 0.064 g

SMILES: C[C@]12CC[C@@H]3c4ccc(O)cc4CC[C@H]3[C@@H]1CC[C@@H]2O [17β Estradiol]
- Percentage of FRAP value remained after 4 weeks of treatment (ovariectomized hamsters [7]): 88.32 ± 21.06 (p = 0.17) %
- Kidney cholesterol (ovariectomized hamsters [8]): 3.5 ± 0.4 mg/g
